Source: patent publication US12479844B2, “Ion channel modulators” (Praxis Precision Medicines, Inc., priority 2018, dated 2025)

Target: T1, human NaV1.6 (hNaV1.6) (Homo sapiens, UniProt Q9UQD0)
T1 construct: expressed in transfected cells; host or cells: HEK-293
Assay: Modulation of late sodium current (INaL), PatchXpress high throughput electrophysiology
Assay type: cell-based
Details: HEK293, HEK-293 cells expressing recombinant human NaV1.6, late current evoked by 300 nM ATX-II, read-out: NaV 1.6 Assay Data (percent inhibition of INaL at hNaV1.6)
Procedure: Functional characterization of exemplary compounds to modulate INaL expressed by the NaV1.6 voltage-gated sodium channel was accomplished using the PatchXpress™ high throughput electrophysiology platform (Molecular Devices, Sunnyvale, CA). HEK-293 cells expressing recombinant, human NaV1.6 (hNaV1.6) were grown in DMEM/high-glucose Dulbecco's modified, 10% FBS, 2 mM sodium pyruvate, 10 mM HEPES and 400 μg/mL G418. Cells were grown to 50%-80% confluency prior to harvesting. Trypsinized cells were washed, allowed to recover for 1 hour and then resuspended in extracellular recording solution at a concentration of 1×10^6 cells/ml. The onboard liquid handling facility of the PatchXpress was used for dispensing cells and applying test compounds. NaV late currents were evoked by the application of 300 nM ATX-II. INaL was evoked by depolarizing pulses to 0 mV for 200 ms from a non-inactivating holding potential (e.g., −120 mV) at a frequency of 0.1 Hz. INaL amplitude and stability were determined by analyzing the mean current amplitude over the final 20 ms of thetest pulse. Following steady state block with exemplary compounds (e.g., as described herein), a Na+ free solution containing an impermeant cation (e.g., Choline or NDMG) was added to confirm the identify of the sodium current. Percent steady-state inhibition of INaL was calculated as: [(INaL_compound)/(INaL_control)]*100, where INaL_compound and INaL_control represent INaL recorded in the presence or absence of compound, respectively.

T1 sequence (Q9UQD0 whole entry): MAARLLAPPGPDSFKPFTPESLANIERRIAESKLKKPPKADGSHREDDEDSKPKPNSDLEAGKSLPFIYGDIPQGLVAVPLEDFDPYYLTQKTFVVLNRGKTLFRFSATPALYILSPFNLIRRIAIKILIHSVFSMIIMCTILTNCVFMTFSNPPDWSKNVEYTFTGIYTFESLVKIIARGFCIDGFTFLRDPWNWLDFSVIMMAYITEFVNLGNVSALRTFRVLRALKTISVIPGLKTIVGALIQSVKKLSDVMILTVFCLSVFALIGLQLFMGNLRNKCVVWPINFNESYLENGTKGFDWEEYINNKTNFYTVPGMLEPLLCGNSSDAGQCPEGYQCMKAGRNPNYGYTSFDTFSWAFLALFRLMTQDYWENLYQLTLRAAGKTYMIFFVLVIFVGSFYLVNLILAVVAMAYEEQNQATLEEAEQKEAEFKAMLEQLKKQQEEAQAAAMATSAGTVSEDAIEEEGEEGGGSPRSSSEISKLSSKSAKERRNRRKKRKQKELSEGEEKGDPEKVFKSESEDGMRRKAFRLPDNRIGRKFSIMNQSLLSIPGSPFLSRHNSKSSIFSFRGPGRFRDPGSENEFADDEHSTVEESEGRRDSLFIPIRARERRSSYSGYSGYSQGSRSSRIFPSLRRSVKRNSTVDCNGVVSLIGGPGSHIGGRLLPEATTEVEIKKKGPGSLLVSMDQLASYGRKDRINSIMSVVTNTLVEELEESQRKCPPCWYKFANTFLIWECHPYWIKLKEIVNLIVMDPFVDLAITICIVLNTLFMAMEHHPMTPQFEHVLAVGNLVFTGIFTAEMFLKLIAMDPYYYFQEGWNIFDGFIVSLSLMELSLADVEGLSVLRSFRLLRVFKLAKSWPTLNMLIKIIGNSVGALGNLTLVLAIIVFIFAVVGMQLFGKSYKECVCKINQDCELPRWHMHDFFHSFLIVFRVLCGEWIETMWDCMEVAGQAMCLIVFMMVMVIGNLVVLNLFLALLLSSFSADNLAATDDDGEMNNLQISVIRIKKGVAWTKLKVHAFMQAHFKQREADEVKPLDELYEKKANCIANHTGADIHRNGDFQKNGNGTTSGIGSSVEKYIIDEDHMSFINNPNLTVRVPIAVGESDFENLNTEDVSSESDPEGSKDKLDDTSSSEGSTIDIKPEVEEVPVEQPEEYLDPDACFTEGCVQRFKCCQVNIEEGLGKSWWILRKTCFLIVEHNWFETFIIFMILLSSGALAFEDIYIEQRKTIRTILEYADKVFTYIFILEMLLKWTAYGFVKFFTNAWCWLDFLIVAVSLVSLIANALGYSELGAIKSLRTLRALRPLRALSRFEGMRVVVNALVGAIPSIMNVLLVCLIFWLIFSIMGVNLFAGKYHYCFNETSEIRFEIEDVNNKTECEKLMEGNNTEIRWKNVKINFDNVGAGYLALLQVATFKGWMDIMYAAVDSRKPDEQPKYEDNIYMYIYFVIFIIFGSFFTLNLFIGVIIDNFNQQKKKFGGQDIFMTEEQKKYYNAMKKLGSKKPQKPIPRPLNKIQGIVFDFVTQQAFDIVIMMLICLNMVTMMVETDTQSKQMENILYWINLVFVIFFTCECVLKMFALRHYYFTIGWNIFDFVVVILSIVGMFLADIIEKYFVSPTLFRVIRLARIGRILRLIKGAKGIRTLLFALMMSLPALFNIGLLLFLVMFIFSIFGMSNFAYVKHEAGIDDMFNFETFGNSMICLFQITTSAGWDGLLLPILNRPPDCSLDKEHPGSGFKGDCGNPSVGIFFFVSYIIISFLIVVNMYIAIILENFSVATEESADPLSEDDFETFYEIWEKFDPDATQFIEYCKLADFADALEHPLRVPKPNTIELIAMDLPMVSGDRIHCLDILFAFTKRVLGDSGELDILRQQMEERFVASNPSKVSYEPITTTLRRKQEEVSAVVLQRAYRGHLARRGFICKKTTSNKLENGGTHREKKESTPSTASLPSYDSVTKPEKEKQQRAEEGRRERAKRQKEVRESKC

inhibition at 1 µM	SMILES
> 70%	CCc1cc(OC(F)(F)F)ccc1-c1cn2c(C(F)(F)OC)nnc2cn1 [Compound 26, 3-[difluoro(methoxy)methyl]-6-[2-ethyl-4-(trifluoromethoxy)phenyl]-[1,2,4]triazolo[4,3-a]pyrazine]
> 70%	COC(F)(F)c1nnc2cnc(-c3ccc(OC(F)(F)F)cc3C3CC3)cn12 [Compound 33, 6-[2-cyclopropyl-4-(trifluoromethoxy)phenyl]-3-[difluoro(methoxy)methyl]-[1,2,4]triazolo[4,3-a]pyrazine]
> 70%	COC(F)(F)c1nnc2cnc(-c3ccc(OC(F)(F)F)cc3C)cn12 [Compound 2, 3-[difluoro(methoxy)methyl]-6-[2-methyl-4-(trifluoromethoxy)phenyl]-[1,2,4]triazolo[4,3-a]pyrazine]
> 70%	CCOC(F)(F)c1nnc2cnc(-c3ccc(OC(F)(F)F)cc3C3CC3)cn12 [Compound 34, 6-[2-cyclopropyl-4-(trifluoromethoxy)phenyl]-3-[ethoxy(difluoro)methyl]-[1,2,4]triazolo[4,3-a]pyrazine]
30 to 70%	COC(F)(F)c1nnc2cnc(-c3ccc(O[C@@H](C)C(F)(F)F)cc3C)cn12 (single isomer, unassigned) [Compound 28]
30 to 70%	Cc1cc(OC(F)(F)F)ccc1-c1cn2c(COC3CC3)nnc2cn1 [Compound 20, 3-(cyclopropoxymethyl)-6-[2-methyl-4-(trifluoromethoxy)phenyl]-[1,2,4]triazolo[4,3-a]pyrazine]
30 to 70%	Cc1cc(OC(F)(F)F)ccc1-c1cn2c(C(F)(F)OC3CC3)nnc2cn1 [Compound 12, 3-[cyclopropoxy(difluoro)methyl]-6-[2-methyl-4-(trifluoromethoxy)phenyl]-[1,2,4]triazolo[4,3-a]pyrazine]
30 to 70%	COC(F)(F)c1nnc2cnc(-c3ccc(O[C@H](C)C(F)(F)F)cc3C)cn12 (single isomer, unassigned) [Compound 27]
< 30%	CCOC(C)(C)c1nnc2cnc(-c3ccc(OC(F)(F)F)cc3C)cn12 [Compound 41, 3-(1-ethoxy-1-methyl-ethyl)-6-[2-methyl-4-(trifluoromethoxy)phenyl]-[1,2,4]triazolo[4,3-a]pyrazine]
> 70%	Cc1cc(OC(F)(F)F)ccc1-c1cn2c(C(F)(F)OCC3CC3)nnc2cn1 [Compound 18, 3-[cyclopropylmethoxy(difluoro)methyl]-6-[2-methyl-4-(trifluoromethoxy)phenyl]-[1,2,4]triazolo[4,3-a]pyrazine]
30 to 70%	CCOC(F)(F)c1nnc2cnc(-c3ccc(OC(F)(F)F)cc3COC3CC3)cn12 [Compound 36, 6-[2-(cyclopropoxymethyl)-4-(trifluoromethoxy)phenyl]-3-[ethoxy(difluoro)methyl]-[1,2,4]triazolo[4,3-a]pyrazine]
30 to 70%	COC(F)(F)c1nnc2cnc(-c3ccc(OC(F)(F)F)cc3COC3CC3)cn12 [Compound 35, 6-[2-(cyclopropoxymethyl)-4-(trifluoromethoxy)phenyl]-3-[difluoro(methoxy)methyl]-[1,2,4]triazolo[4,3-a]pyrazine]
> 70%	CCOC(F)(F)c1nnc2cnc(-c3ccc(OC(F)(F)F)cc3C)cn12 [Compound 4, 3-[ethoxy(difluoro)methyl]-6-[2-methyl-4-(trifluoromethoxy)phenyl]-[1,2,4]triazolo[4,3-a]pyrazine]
30 to 70%	Cc1cc(OC(F)(F)F)ccc1-c1cn2c(COCC3CC3)nnc2cn1 [Compound 16, 3-(cyclopropylmethoxymethyl)-6-[2-methyl-4-(trifluoromethoxy)phenyl]-[1,2,4]triazolo[4,3-a]pyrazine]
30 to 70%	COC(F)(F)c1nnc2cnc(-c3ccc(OCC(F)(F)F)cc3C)cn12 [Compound 21, 3-(difluoro(methoxy)methyl)-6-(2-methyl-4-(2,2,2-trifluoroethoxy)phenyl)-[1,2,4]triazolo[4,3-a]pyrazine]
> 70%	CCOC(F)(F)c1nnc2cnc(-c3ccc(O[C@H](C)C(F)(F)F)cc3C)cn12 (single isomer, unassigned) [Compound 29]

More lines, now with the values behind:

SMILES	inhibition at 1 µM
Cc1cc(OC(F)(F)F)ccc1-c1cn2c(COCc3ccccc3)nnc2cn1 [Compound 6, 3-((benzyloxy)methyl)-6-(2-methyl-4-(trifluoromethoxy)phenyl)-[1,2,4]triazolo[4,3-a]pyrazine]	> 70%
COC(F)(F)c1nnc2cnc(-c3ccc(OC(C)C)cc3C)cn12 [Compound 22, 3-(difluoro(methoxy)methyl)-6-(4-isopropoxy-2-methylphenyl)-[1,2,4]triazolo [4,3-a]pyrazine]	30 to 70%
CCOC(F)(F)c1nnc2cnc(-c3ccc(OC4CC(F)(F)C4)cc3)cn12 [Compound 37, 6-[4-(3,3-difluorocyclobutoxy)phenyl]-3-[ethoxy(difluoro)methyl]-[1,2,4]triazolo[4,3-a]pyrazine]	> 70%
COCc1nnc2ccc(-c3ccc(OC(F)(F)F)cc3C)nn12 [Compound 8, 3-(methoxymethyl)-6-[2-methyl-4-(trifluoromethoxy)phenyl]-[1,2,4]triazolo[4,3-b]pyridazine]	30 to 70%
CO[C@@H](C)c1cc(OC(F)(F)F)ccc1-c1cn2c(C(F)(F)OC)nnc2cn1 (single isomer, unassigned) [Compound 32]	< 30%
COCc1nnc2cnc(-c3ccc(OC(F)(F)F)cc3C)cn12 [Compound 3, 3-(methoxymethyl)-6-[2-methyl-4-(trifluoromethoxy)phenyl]-[1,2,4]triazolo[4,3-a]pyrazine]	< 30%
CO[C@H](C)c1cc(OC(F)(F)F)ccc1-c1cn2c(C(F)(F)OC)nnc2cn1 (single isomer, unassigned) [Compound 31]	< 30%
CCOCc1nnc2ccc(-c3ccc(OC(F)(F)F)cc3C)nn12 [Compound 13, 3-(ethoxymethyl)-6-[2-methyl-4-(trifluoromethoxy)phenyl]-[1,2,4]triazolo[4,3-b]pyridazine]	< 30%
COC(F)(F)c1nnc2ccc(-c3ccc(OC(F)(F)F)cc3C)nn12 [Compound 14, 3-[difluoro(methoxy)methyl]-6-[2-methyl-4-(trifluoromethoxy)phenyl]-[1,2,4]triazolo[4,3-b]pyridazine]	30 to 70%
CCOC(F)(F)c1nnc2cnc(-c3ccc(OC(C)C)cc3C)cn12 [Compound 23, 3-(ethoxydifluoromethyl)-6-(4-isopropoxy-2-methylphenyl)-[1,2,4]triazolo[4,3-a]pyrazine]	30 to 70%
COC(F)(F)c1nnc2cnc(-c3ccc(OC4CC(F)(F)C4)cc3C)cn12 [Compound 39, 6-[4-(3,3-difluorocyclobutoxy)-2-methyl-phenyl]-3-[difluoro(methoxy)methyl]-[1,2,4]triazolo[4,3-a]pyrazine]	30 to 70%
Cc1cc(OC(F)(F)F)ccc1-c1cn2c(COCC(C)C)nnc2cn1 [Compound 7, 3-(isobutoxymethyl)-6-(2-methyl-4-(trifluoromethoxy)phenyl)-[1,2,4]triazolo[4,3-a]pyrazine]	30 to 70%
COC(F)(F)c1nnc2cnc(-c3cc(F)c(OC(F)(F)F)cc3C)cn12 [Compound 40, 3-[difluoro(methoxy)methyl]-6-[5-fluoro-2-methyl-4-(trifluoromethoxy)phenyl]-[1,2,4]triazolo[4,3-a]pyrazine]	> 70%
CCOC(F)(F)c1nnc2cnc(-c3ccc(OC(C)C)cc3)cn12 [Compound 25, 3-(ethoxydifluoromethyl)-6-(4-isopropoxyphenyl)-[1,2,4]triazolo[4,3-a]pyrazine]	> 70%
COCc1cc(OC(F)(F)F)ccc1-c1cn2c(C(F)(F)OC)nnc2cn1 [Compound 1, 3-[difluoro(methoxy)methyl]-6-[2-(methoxymethyl)-4-(trifluoromethoxy)phenyl]-[1,2,4]triazolo[4,3-a]pyrazine]	> 70%
CCOC(F)(F)c1nnc2cnc(-c3ccc(OC(F)(F)F)cc3COC)cn12 [Compound 19, 3-[ethoxy (difluoro)methyl]-6-[2-(methoxymethyl)-4-(trifluoromethoxy)phenyl]-[1,2,4] triazolo [4,3-a] pyrazine]	> 70%
COC(F)(F)c1nnc2cnc(-c3ccc(OC(C)C)cc3)cn12 [Compound 24, 3-(difluoro(methoxy)methyl)-6-(4-isopropoxyphenyl)-[1,2,4]triazolo[4,3-a]pyrazine]	> 70%
COC(F)(F)c1nnc2cnc(-c3c(C)cc(OC(F)(F)F)cc3F)cn12 [Compound 43, 3-[difluoro(methoxy)methyl]-6-[2-fluoro-6-methyl-4-(trifluoromethoxy)phenyl]-[1,2,4]triazolo[4,3-a]pyrazine]	30 to 70%
COCc1cc(OC(F)(F)F)ccc1-c1cn2c(COC)nnc2cn1 [Compound 17, 3-(methoxymethyl)-6-[2-(methoxymethyl)-4-(trifluoromethoxy)phenyl]-[1,2,4] triazolo[4,3-a]pyrazine]	< 30%
